Test results: PubChem BioAssay (NCI)
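Five compound concentrations were applied to cells in 96-well plates for 48 hours; endpoints were derived by simple linear interpolation of the resulting dose-response curve. TGI marks complete inhibition of growth.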

Tests used:
Assay in all cases: NCI tumour cell line growth inhibition, 48 h
M19-MEL melanoma = system: M19-MEL melanoma
SNB-78 CNS = system: SNB-78 CNS
A549 NSCLC = system: A549 NSCLC
SF-268 CNS = system: SF-268 CNS
CAKI-1 renal = system: CAKI-1 renal
MALME-3M melanoma = system: MALME-3M melanoma
SNB-75 CNS = system: SNB-75 CNS
SK-OV-3 ovarian = system: SK-OV-3 ovarian
UACC-62 melanoma = system: UACC-62 melanoma
IGROV1 ovarian = system: IGROV1 ovarian
LOX IMVI melanoma = system: LOX IMVI melanoma
EKVX NSCLC = system: EKVX NSCLC
UACC-257 melanoma = system: UACC-257 melanoma
OVCAR-8 ovarian = system: OVCAR-8 ovarian
NCI/ADR-RES ovarian = system: NCI/ADR-RES ovarian
SK-MEL-5 melanoma = system: SK-MEL-5 melanoma
OVCAR-3 ovarian = system: OVCAR-3 ovarian
HCT-15 colon = system: HCT-15 colon
NCI-H460 lung = system: NCI-H460 lung
XF 498 CNS = system: XF 498 CNS
CCRF-CEM leukemia = system: CCRF-CEM leukemia
NCI-H522 lung = system: NCI-H522 lung
HL-60(TB) leukemia = system: HL-60(TB) leukemia
HOP-18 NSCLC = system: HOP-18 NSCLC
HOP-92 NSCLC = system: HOP-92 NSCLC
SN12K1 renal = system: SN12K1 renal
HCC-2998 colon = system: HCC-2998 colon
A498 renal = system: A498 renal
OVCAR-4 ovarian = system: OVCAR-4 ovarian
RPMI-8226 leukemia = system: RPMI-8226 leukemia
KM12 colon = system: KM12 colon
DMS 273 small cell lung = system: DMS 273 small cell lung
K-562 leukemia = system: K-562 leukemia
SNB-19 CNS = system: SNB-19 CNS
P388 leukemia = system: P388 leukemia
HT29 colon = system: HT29 colon
COLO 205 colon = system: COLO 205 colon
NCI-H23 lung = system: NCI-H23 lung
KM20L2 colon = system: KM20L2 colon
MOLT-4 leukemia = system: MOLT-4 leukemia
DLD-1 colon = system: DLD-1 colon
SW-620 colon = system: SW-620 colon
P388/ADR leukemia = system: P388/ADR leukemia
RXF 393 renal = system: RXF 393 renal
U251 CNS = system: U251 CNS
SF-539 CNS = system: SF-539 CNS
OVCAR-5 ovarian = system: OVCAR-5 ovarian
NCI-H226 lung = system: NCI-H226 lung
SF-295 CNS = system: SF-295 CNS
HOP-62 NSCLC = system: HOP-62 NSCLC
MCF7 breast = system: MCF7 breast
SK-MEL-2 melanoma = system: SK-MEL-2 melanoma
SK-MEL-28 melanoma = system: SK-MEL-28 melanoma
SN12C renal = system: SN12C renal
UO-31 renal = system: UO-31 renal
DMS 114 small cell lung = system: DMS 114 small cell lung

For CC(C)CCCCCCCCCCCCC(=O)NCC(=O)NC1C(C)OC(Nc2ncnc3c2ncn3C)C(O)C1O (stereo unspecified), which TGI (M19-MEL melanoma) is on record?
Its TGI is over 100 µM.

And the TGI (SNB-78 CNS)?
The TGI was over 100 µM.

What about the TGI (A549 NSCLC) of the same compound?
Its TGI is over 100 µM.

What about the TGI (SF-268 CNS) of the same compound?
The TGI was over 100 µM.

What about the TGI (CAKI-1 renal) of the same compound?
The TGI was 5.6 µM.

What about the TGI (MALME-3M melanoma) of the same compound?
The TGI was over 100 µM.

And the TGI (SNB-75 CNS)?
Its TGI is 27.9 µM.

And the TGI (SK-OV-3 ovarian)?
Its TGI is over 94.6 µM.

And the TGI (UACC-62 melanoma)?
Its TGI is over 100 µM.

What about the TGI (IGROV1 ovarian) of the same compound?
Its TGI is over 100 µM.

And the TGI (LOX IMVI melanoma)?
Its TGI is over 100 µM.

What about the TGI (EKVX NSCLC) of the same compound?
The TGI was over 100 µM.

What about the TGI (UACC-257 melanoma) of the same compound?
Its TGI is over 100 µM.

What about the TGI (OVCAR-8 ovarian) of the same compound?
Its TGI is over 100 µM.

And the TGI (NCI/ADR-RES ovarian)?
Its TGI is over 100 µM.

And the TGI (SK-MEL-5 melanoma)?
The TGI was over 100 µM.

What about the TGI (OVCAR-3 ovarian) of the same compound?
Its TGI is over 100 µM.

What about the TGI (HCT-15 colon) of the same compound?
The TGI was over 100 µM.

And the TGI (NCI-H460 lung)?
The TGI was over 100 µM.

What about the TGI (XF 498 CNS) of the same compound?
Its TGI is over 62 µM.

What about the TGI (CCRF-CEM leukemia) of the same compound?
The TGI was over 100 µM.

And the TGI (NCI-H522 lung)?
The TGI was 31.9 µM.

And the TGI (HL-60(TB) leukemia)?
Its TGI is 6.08 µM.

What about the TGI (HOP-18 NSCLC) of the same compound?
Its TGI is over 30.1 µM.

What about the TGI (HOP-92 NSCLC) of the same compound?
The TGI was 8.41 µM.

And the TGI (SN12K1 renal)?
The TGI was over 100 µM.

And the TGI (HCC-2998 colon)?
Its TGI is 11.6 µM.

And the TGI (A498 renal)?
The TGI was 24.2 µM.

And the TGI (OVCAR-4 ovarian)?
Its TGI is over 100 µM.

What about the TGI (RPMI-8226 leukemia) of the same compound?
Its TGI is over 100 µM.

And the TGI (KM12 colon)?
The TGI was over 100 µM.

And the TGI (DMS 273 small cell lung)?
The TGI was 21.6 µM.

What about the TGI (K-562 leukemia) of the same compound?
Its TGI is over 100 µM.

What about the TGI (SNB-19 CNS) of the same compound?
The TGI was over 31 µM.

And the TGI (P388 leukemia)?
Its TGI is over 100 µM.

And the TGI (HT29 colon)?
The TGI was over 100 µM.

What about the TGI (COLO 205 colon) of the same compound?
The TGI was over 100 µM.

What about the TGI (NCI-H23 lung) of the same compound?
Its TGI is over 100 µM.

What about the TGI (KM20L2 colon) of the same compound?
The TGI was over 100 µM.

What about the TGI (MOLT-4 leukemia) of the same compound?
The TGI was over 100 µM.

What about the TGI (DLD-1 colon) of the same compound?
Its TGI is over 100 µM.

What about the TGI (SW-620 colon) of the same compound?
The TGI was over 100 µM.

What about the TGI (P388/ADR leukemia) of the same compound?
Its TGI is over 100 µM.

And the TGI (RXF 393 renal)?
The TGI was over 25.7 µM.

What about the TGI (U251 CNS) of the same compound?
Its TGI is 11.3 µM.

What about the TGI (SF-539 CNS) of the same compound?
The TGI was 13.1 µM.

What about the TGI (OVCAR-5 ovarian) of the same compound?
The TGI was 97 µM.

And the TGI (NCI-H226 lung)?
The TGI was 15.2 µM.

And the TGI (SF-295 CNS)?
The TGI was over 100 µM.

What about the TGI (HOP-62 NSCLC) of the same compound?
The TGI was over 34.2 µM.

What about the TGI (MCF7 breast) of the same compound?
Its TGI is over 100 µM.

What about the TGI (SK-MEL-2 melanoma) of the same compound?
Its TGI is over 100 µM.

What about the TGI (SK-MEL-28 melanoma) of the same compound?
The TGI was over 100 µM.

And the TGI (SN12C renal)?
The TGI was over 100 µM.

And the TGI (UO-31 renal)?
The TGI was 16.9 µM.

What about the TGI (DMS 114 small cell lung) of the same compound?
The TGI was over 100 µM.
